Data taken from patent EP4664463A1, “COMPUTER-IMPLEMENTED METHOD FOR OLFACTORY PROPERTY PREDICTION” (Givaudan SA, priority 2024, dated 2025).
Substitutions are numbered along the chain they refer to. Like-named read-outs stand apart in the source and are kept apart here. Blank lines part the entries; values can stand above or below the compound they belong to.

What was measured:
OR2M2 = experiment: Activation of modified OR2M2 by sulfur compounds in presence of copper (luciferase); type: cell-based, human; settings: modified C-terminus
Excerpt: The most pungent odorant in human axillary sweat with an ODT of 1 picogram / L air is 3-methyl-3-sulfanyl-hexanol (also known as 3-methyl-3-mercapto-hexanol) (Natsch et al. identification of Odoriferous Sulfanylalkanols in Human Axilla Secretions and Their Formation through Cleavage of Cysteine Precursors by a C-S Lyase Isolated from Axilla bacteria. […] 2004; 1:1058-1072). So far, no OR has been described which can selectively detect this key odorant leading to undesired axilla odor in human subjects. By screening a library of receptor variants with the C-terminal sequence SEQ ID NO: 86 in presence of copper against a library of 52 sulfur compounds (see example 5), a hitherto orphan receptor, OR2M2, was identified, which is activated by 3-methyl-3-mercapto-hexanol and closely related chemicals, but not by other sulfur odorants (Figure 19).

OR10J5 [1] = target: T1, OR10J5 (Homo sapiens, UniProt Q8NHC4); experiment: cell-based; type: cell-based
T1 construct: expressed in transfected cells; host or cells: HEK293T cells stably expressing human RTP1S (V227I) and RTP2 (L220R)
T1 sequence (Q8NHC4 1-309): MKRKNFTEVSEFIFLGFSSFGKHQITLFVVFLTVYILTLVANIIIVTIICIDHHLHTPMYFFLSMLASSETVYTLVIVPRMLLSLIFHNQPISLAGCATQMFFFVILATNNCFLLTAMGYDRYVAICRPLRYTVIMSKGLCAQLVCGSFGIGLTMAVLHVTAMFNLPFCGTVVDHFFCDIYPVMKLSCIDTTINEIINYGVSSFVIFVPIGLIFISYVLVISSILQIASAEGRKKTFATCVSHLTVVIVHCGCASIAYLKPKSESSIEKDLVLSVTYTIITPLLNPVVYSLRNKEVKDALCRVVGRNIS
Excerpt: (§1) To create an expression plasmid, an OR coding sequence fused at the end of TM7 to the desired C-terminus sequence was synthesized by a DNA synthesis service provider (BioCat GmbH, Germany) and inserted into pcDNA3.1(+) (Invitrogen, MA, USA) downstream of the CMV promoter sequence (SEQ ID NO: 82) using BamHI and Notl restriction sites. All the synthetic OR nucleotide sequences described below in Examples 1-15 further contained at their N-terminus a nucleotide sequence encoding a signal peptide (mmLucy-FLAG-rho, SeQ ID NOs: 80, 81) and at the C-terminus the bgh terminator sequence (SEQ ID NO: 83). All the OR expression plasmids also contain a Kozak sequence (GCCACC) between the BamHI restriction site and the start codon of the signal peptide. These plasmids thus contain a constitutively expressed OR gene.

OR10J5 [2] = target: T2, OR10J5 (Homo sapiens, UniProt Q8NHC4); experiment: cell-based; type: cell-based; remark: listed apart in the source
T2 construct: expressed in transfected cells; host or cells: HEK293T cells stably expressing human RTP1S (V227I) and RTP2 (L220R)
T2 sequence (Q8NHC4 with tags, fused parts or gaps): T1 sequence (Q8NHC4 1-309) with C301K, V303L, V304L, G305K, N307K, I308C, S309C
Excerpt: as §1

OR10J5 [3] = experiment: cell-based; type: cell-based, human
Excerpt: as §1

OR7D4 = target: T3, OR7D4 (Homo sapiens, UniProt Q8NG98, D296E/E302K/G299D); experiment: cell-based; type: cell-based
T3 construct: expressed in transfected cells; host or cells: HEK293T cells stably expressing human RTP1S (V227I) and RTP2 (L220R)
T3 sequence (Q8NG98 with tags, fused parts or gaps D296E/G299D/E302K limits assumed): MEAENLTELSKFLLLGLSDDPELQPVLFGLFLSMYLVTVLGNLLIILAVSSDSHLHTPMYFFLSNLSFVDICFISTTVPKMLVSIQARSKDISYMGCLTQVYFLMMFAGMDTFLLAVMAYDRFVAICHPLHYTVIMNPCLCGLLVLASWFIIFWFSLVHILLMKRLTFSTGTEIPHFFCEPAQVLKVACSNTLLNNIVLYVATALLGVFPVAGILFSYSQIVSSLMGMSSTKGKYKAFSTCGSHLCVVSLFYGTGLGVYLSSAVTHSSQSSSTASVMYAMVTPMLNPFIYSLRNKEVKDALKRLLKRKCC
Excerpt: as §1
Similarly, in Figure 7 the dose-response of OR7D4 is shown when tested both with androstenone and the closely related molecule androstenol. […] Thus, a better understanding of the receptive space of OR7D4 is possible based on the improved sensitivity of the assay provided by the modified variant.

OR56A4 = target: T4, OR56A4 (Homo sapiens, UniProt Q8NGH8); experiment: cell-based; type: cell-based; settings: wild-type
T4 construct: expressed in transfected cells; host or cells: HEK293T stably expressing human RTP1S(V227I) and RTP2(L220R)
T4 sequence (Q8NGH8 1-313): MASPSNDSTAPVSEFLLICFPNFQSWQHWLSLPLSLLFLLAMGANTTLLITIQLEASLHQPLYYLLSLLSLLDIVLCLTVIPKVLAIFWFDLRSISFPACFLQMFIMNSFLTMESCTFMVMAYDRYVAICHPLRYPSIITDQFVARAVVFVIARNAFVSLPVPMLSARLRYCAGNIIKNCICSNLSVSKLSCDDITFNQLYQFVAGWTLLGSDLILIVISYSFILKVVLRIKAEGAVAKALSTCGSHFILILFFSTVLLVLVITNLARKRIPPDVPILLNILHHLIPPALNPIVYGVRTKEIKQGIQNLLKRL
Excerpt: as §1
Activation of OR56A4 by acids of different chain length was further tested. […] Replacing the wild-type with the C-terminal sequence of the functional OR51 E1 did reduce activity. However, using the optimized sequence form Examples 1-5 led to a strong signal and much lower detection threshold upon addition of all three acids.

OR8K3 [4] = target: T5, OR8K3 (Homo sapiens, UniProt Q8NH51); experiment: cell-based; type: cell-based
T5 construct: expressed in transfected cells; host or cells: HEK293T cells stably expressing human RTP1S (V227I) and RTP2 (L220R)
T5 sequence (Q8NH51 1-312): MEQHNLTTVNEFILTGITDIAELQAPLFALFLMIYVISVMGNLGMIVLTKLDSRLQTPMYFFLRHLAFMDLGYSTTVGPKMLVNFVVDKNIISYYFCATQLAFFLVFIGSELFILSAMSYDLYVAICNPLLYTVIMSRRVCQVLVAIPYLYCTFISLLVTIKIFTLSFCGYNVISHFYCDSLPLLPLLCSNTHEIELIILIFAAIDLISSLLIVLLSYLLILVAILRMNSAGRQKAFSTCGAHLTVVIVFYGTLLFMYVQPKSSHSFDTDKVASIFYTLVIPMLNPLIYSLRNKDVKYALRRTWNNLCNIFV
Excerpt: as §1
(§2) Thus, using the improved sensitivity of the assay provided by the modified variant, activation of OR8K3 by a broader set of mint-smelling molecules can be detected.
(§3) Knowing the importance of the C-terminal sequence for proper expression as observed in the previous examples, an obvious way to improve expression might be just to provide a hybrid receptor whereby the C-terminal domain in a non-functional or poorly functional receptor is replaced by the C-terminal domain of a functional receptor. […] Thus the C-terminal sequence of OR8K3 was replaced with the C-terminal sequence of the ambrettolide-receptor OR1N2 or the musk receptor OR5AN1. […] Thus the improvement achieved with the modified C-terminal sequences of this disclosure cannot be achieved by simply generating chimeric receptors combining a functional C-terminal domain of a functional receptor with a poorly expressed receptor.

OR8K3 [5] = target: T6, OR8K3 (Homo sapiens, UniProt Q8NH51, D295E/Y298D); experiment: cell-based; type: cell-based; settings: OR8K3 with SEQ ID NO: 86
T6 construct: expressed in transfected cells; host or cells: HEK293T cells stably expressing human RTP1S (V227I) and RTP2 (L220R)
T6 sequence (Q8NH51 with tags, fused parts or gaps D295E/Y298D): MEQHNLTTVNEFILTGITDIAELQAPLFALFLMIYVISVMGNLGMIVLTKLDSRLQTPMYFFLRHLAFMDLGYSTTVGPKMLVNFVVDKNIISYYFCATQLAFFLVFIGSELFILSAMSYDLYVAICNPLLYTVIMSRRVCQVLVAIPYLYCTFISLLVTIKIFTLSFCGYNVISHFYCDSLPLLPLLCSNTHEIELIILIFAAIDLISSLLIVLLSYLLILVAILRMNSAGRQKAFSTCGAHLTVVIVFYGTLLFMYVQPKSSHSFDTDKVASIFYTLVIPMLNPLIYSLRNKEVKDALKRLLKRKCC
Excerpt: as §1, §2, §3

- activation of OR2M2 (OR2M2): activated
Structure (SMILES): C=C(C)C1CCC2=CC(=O)CC(C)C2(C)C1 (centres unmarked) [Nootkatone, 5,6-Dimethyl-8-iso-propenylbicyclo-(4,4,0)-dec-1-en-3-one]

- EC50 (OR10J5 [1]; wild-type, read-out: Potency EC50): > 31 µM
- Detection threshold; concentration for 2-fold induction (OR10J5 [2]): 5.64 µM
- EC50 (OR10J5 [2]; changed C-term SEQ ID NO: 86, read-out: Potency EC50): 6.2 µM
Structure (SMILES): Cc1cc(CC(C)C)ccc1CCC=O [Nympheal, 3-(4-isobutyl-2-methylphenyl)propanal]
- Detection threshold; concentration for 2-fold induction (OR10J5 [1]): n.i. (>31 µM, at cytotoxic dose)
- Comments on efficacy (OR10J5 [3]): Only 1.8-fold induction for WT, but 5.5-fold for changed C-terminus
- Fold-improvement potency (OR10J5 [3]): >>6
- Fold-improvement threshold (OR10J5 [3]): >>6

- activation of OR2M2 (OR2M2): activated
Structure (SMILES): CCC(CC)C(=O)N(C)c1cccc(C)c1 [Paradisamide]

Structure (SMILES): C[C@]12CC[C@@H](O)C[C@@H]1CC[C@@H]1[C@@H]2CC[C@]2(C)C=CC[C@@H]12 [androstenol]
- activation of OR7D4 wild-type vs modified (OR7D4): can only activate the modified version of the receptor

- activation of wild-type OR56A4 (OR56A4): activated at high concentration
Structure (SMILES): CCCCCCCCCC(=O)O [decanoic acid]

- Detection threshold; concentration for 2-fold induction (OR8K3 [4]): > 316 µM
Structure (SMILES): CC(C)[C@@H]1CC[C@@H](C)CC1=O [menthone]
- activation of modified receptor variant (OR8K3 [5]): also activating the receptor, although with a lower potency

Structure (SMILES): CCCCCCCCC(=O)O [nonanoic acid]
- activation of wild-type OR56A4 (OR56A4): not
